Key:
Assay type in all cases: functional
[1] = test system: Aspergillus fumigatus; experiment: Antifungal activity against Aspergillus fumigatus ATCC 10894 at 100 ug/ml after 48 hrs by agar diffusion assay; settings: ATCC 10894, 48 h, read-out: IZ
[2] = test system: Candida albicans; experiment: Antifungal activity against Candida albicans ATCC 10231 at 100 ug/ml after 48 hrs by agar diffusion assay; settings: ATCC 10231, 48 h, read-out: IZ
[3] = test system: Geotrichum candidum; experiment: Antifungal activity against Geotrichum candidum AS2.498 at 100 ug/ml after 48 hrs by agar diffusion assay; settings: read-out: IZ

Compound | zone of inhibition at 100 µg/mL [1] [mm] | zone of inhibition at 100 µg/mL [2] [mm] | zone of inhibition at 100 µg/mL [3] [mm]
C[C@H]1CCC[C@@]2(CC3=C(CO2)C(=O)[C@](C)(O)[C@@H](O)C3)O1 [PESTAFOLIDE A] | 10 |  | 
OC(Cn1cncn1)(Cn1cncn1)c1ccc(F)cc1F [FLUCONAZOLE] | 18 | 18 | 18
Cc1c(O)cc2c(c1O)C(=O)O[C@@H]2[C@H](C)O [PESTAPHTHALIDE A] |  | 13 | 
Cc1c(O)cc2c(c1O)C(=O)O[C@H]2[C@H](C)O [PESTAPHTHALIDE B] |  |  | 11
